Assay results published in PubChem BioAssay (NCI).
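Where inhibition never reached the appropriate level, the endpoint shown equals the highest concentration tested. Otherwise, values were interpolated linearly from a five-concentration, 48-hour dose response in 96-well plates. Abbreviation: GI50, concentration required for 50% inhibition of growth. TGI: concentration producing complete growth inhibition.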

Key:
Assay in all cases: NCI-60 cell line screen, 48 h
786-0 renal = system: 786-0 renal
A498 renal = system: A498 renal
A549 NSCLC = system: A549 NSCLC
ACHN renal = system: ACHN renal
BT-549 breast = system: BT-549 breast
CAKI-1 renal = system: CAKI-1 renal
CCRF-CEM leukemia = system: CCRF-CEM leukemia
COLO 205 colon = system: COLO 205 colon
DU-145 prostate = system: DU-145 prostate
EKVX NSCLC = system: EKVX NSCLC
HCC-2998 colon = system: HCC-2998 colon
HCT-116 colon = system: HCT-116 colon
HCT-15 colon = system: HCT-15 colon
HL-60(TB) leukemia = system: HL-60(TB) leukemia
HOP-62 NSCLC = system: HOP-62 NSCLC
HOP-92 NSCLC = system: HOP-92 NSCLC
HS 578T breast = system: HS 578T breast
HT29 colon = system: HT29 colon
IGROV1 ovarian = system: IGROV1 ovarian
K-562 leukemia = system: K-562 leukemia
KM12 colon = system: KM12 colon
LOX IMVI melanoma = system: LOX IMVI melanoma
M14 melanoma = system: M14 melanoma
MALME-3M melanoma = system: MALME-3M melanoma
MCF7 breast = system: MCF7 breast
MDA-MB-231 breast = system: MDA-MB-231 breast
MDA-MB-435 = system: MDA-MB-435
MOLT-4 leukemia = system: MOLT-4 leukemia
NCI-H226 lung = system: NCI-H226 lung
NCI-H23 lung = system: NCI-H23 lung
NCI-H460 lung = system: NCI-H460 lung
NCI-H522 lung = system: NCI-H522 lung
NCI/ADR-RES ovarian = system: NCI/ADR-RES ovarian
OVCAR-3 ovarian = system: OVCAR-3 ovarian
OVCAR-4 ovarian = system: OVCAR-4 ovarian
OVCAR-5 ovarian = system: OVCAR-5 ovarian
OVCAR-8 ovarian = system: OVCAR-8 ovarian
PC-3 prostate = system: PC-3 prostate
RPMI-8226 leukemia = system: RPMI-8226 leukemia
RXF 393 renal = system: RXF 393 renal
SF-268 CNS = system: SF-268 CNS
SF-295 CNS = system: SF-295 CNS
SF-539 CNS = system: SF-539 CNS
SK-MEL-2 melanoma = system: SK-MEL-2 melanoma
SK-MEL-28 melanoma = system: SK-MEL-28 melanoma
SK-MEL-5 melanoma = system: SK-MEL-5 melanoma
SK-OV-3 ovarian = system: SK-OV-3 ovarian
SN12C renal = system: SN12C renal
SNB-75 CNS = system: SNB-75 CNS
SR leukemia = system: SR leukemia
SW-620 colon = system: SW-620 colon
T-47D breast = system: T-47D breast
TK-10 renal = system: TK-10 renal
U251 CNS = system: U251 CNS
UACC-62 melanoma = system: UACC-62 melanoma
UO-31 renal = system: UO-31 renal
SNB-19 CNS = system: SNB-19 CNS
UACC-257 melanoma = system: UACC-257 melanoma

## O=C(Nc1ccc(Cl)cc1)c1cc2ccccc2cc1OP(=O)(O)O
786-0 renal
  GI50: 3.59 µM
  TGI: 13.4 µM
A498 renal
  GI50: 2.79 µM
  TGI: 19.4 µM
A549 NSCLC
  GI50: 4.85 µM
  TGI: > 100 µM
ACHN renal
  GI50: 3.04 µM
  TGI: 49.3 µM
BT-549 breast
  GI50: 2.89 µM
  TGI: 9.24 µM
CAKI-1 renal
  GI50: 1.77 µM
  TGI: 11.1 µM
CCRF-CEM leukemia
  GI50: 2.82 µM
  TGI: > 100 µM
COLO 205 colon
  GI50: 14.5 µM
  TGI: 27.8 µM
DU-145 prostate
  GI50: 3.94 µM
  TGI: 17.8 µM
EKVX NSCLC
  GI50: 2.82 µM
  TGI: 25.2 µM
HCC-2998 colon
  GI50: 4.19 µM
  TGI: 29.9 µM
HCT-116 colon
  GI50: 3 µM
  TGI: 11.9 µM
HCT-15 colon
  GI50: 3.55 µM
  TGI: > 100 µM
HL-60(TB) leukemia
  GI50: > 100 µM
  TGI: > 100 µM
HOP-62 NSCLC
  GI50: 3.57 µM
  TGI: 17 µM
HOP-92 NSCLC
  GI50: 2.46 µM
  TGI: 8.45 µM
HS 578T breast
  GI50: 2.96 µM
  TGI: 19.8 µM
HT29 colon
  GI50: 28.9 µM
  TGI: > 100 µM
IGROV1 ovarian
  GI50: 3.81 µM
  TGI: 95.2 µM
K-562 leukemia
  GI50: 53.8 µM
  TGI: > 100 µM
KM12 colon
  GI50: 3.14 µM
  TGI: 13.7 µM
LOX IMVI melanoma
  GI50: 3.52 µM
  TGI: 17.5 µM
M14 melanoma
  GI50: 3.74 µM
  TGI: 56.6 µM
MALME-3M melanoma
  GI50: 1.91 µM
  TGI: 7.3 µM
MCF7 breast
  GI50: 5.52 µM
  TGI: 40.9 µM
MDA-MB-231 breast
  GI50: 3.01 µM
  TGI: 16.6 µM
MDA-MB-435
  GI50: 3.27 µM
  TGI: 32.3 µM
MOLT-4 leukemia
  GI50: 24.8 µM
  TGI: > 100 µM
NCI-H226 lung
  GI50: 2.97 µM
  TGI: 16.9 µM
NCI-H23 lung
  GI50: 2.42 µM
  TGI: 9.95 µM
NCI-H460 lung
  GI50: 3.43 µM
  TGI: 16.8 µM
NCI-H522 lung
  GI50: 3.29 µM
  TGI: 38.1 µM
NCI/ADR-RES ovarian
  GI50: 3.51 µM
  TGI: > 100 µM
OVCAR-3 ovarian
  GI50: 3.22 µM
  TGI: 11.2 µM
OVCAR-4 ovarian
  GI50: 4.88 µM
  TGI: > 100 µM
OVCAR-5 ovarian
  GI50: 6.51 µM
  TGI: 42.3 µM
OVCAR-8 ovarian
  GI50: 4.73 µM
  TGI: > 100 µM
PC-3 prostate
  GI50: 2.92 µM
  TGI: > 100 µM
RPMI-8226 leukemia
  GI50: 1.52 µM
  TGI: 6.02 µM
RXF 393 renal
  GI50: 6.64 µM
  TGI: 71.1 µM
SF-268 CNS
  GI50: 3.9 µM
  TGI: 40 µM
SF-295 CNS
  GI50: 8.6 µM
  TGI: 31.9 µM
SF-539 CNS
  GI50: 4.4 µM
  TGI: 19.2 µM
SK-MEL-2 melanoma
  GI50: 3.58 µM
  TGI: 24.4 µM
SK-MEL-28 melanoma
  GI50: 4.88 µM
  TGI: 55.3 µM
SK-MEL-5 melanoma
  GI50: 2.89 µM
  TGI: 8.83 µM
SK-OV-3 ovarian
  GI50: 2.51 µM
  TGI: 16.9 µM
SN12C renal
  GI50: 3.4 µM
  TGI: > 100 µM
SNB-75 CNS
  GI50: 2.03 µM
  TGI: 25.2 µM
SR leukemia
  GI50: 23.7 µM
  TGI: > 100 µM
SW-620 colon
  GI50: 4.07 µM
  TGI: 37.5 µM
T-47D breast
  GI50: 3.98 µM
  TGI: 35.2 µM
TK-10 renal
  GI50: 3.65 µM
  TGI: 14.1 µM
U251 CNS
  GI50: 3.74 µM
  TGI: 21.3 µM
UACC-62 melanoma
  GI50: 2.66 µM
  TGI: > 100 µM
UO-31 renal
  GI50: 3.75 µM
  TGI: > 100 µM

## Cn1c(=O)c(-c2c(Cl)cccc2Cl)cc2cnc(Nc3ccc(I)cc3)nc21
786-0 renal
  GI50: 1.95 µM
  TGI: 6.22 µM
A498 renal
  GI50: < 0.01 µM
  TGI: < 0.01 µM
A549 NSCLC
  GI50: 3.72 µM
  TGI: 19.4 µM
ACHN renal
  TGI: 0.712 µM
BT-549 breast
  GI50: 0.0389 µM
  TGI: 0.445 µM
CAKI-1 renal
  GI50: < 0.0247 µM
CCRF-CEM leukemia
  GI50: 0.0224 µM
  TGI: > 100 µM
COLO 205 colon
  GI50: 0.0458 µM
  TGI: 0.324 µM
DU-145 prostate
  GI50: < 0.01 µM
  TGI: 0.139 µM
HCC-2998 colon
  GI50: < 0.0293 µM
  TGI: 0.213 µM
HCT-116 colon
  TGI: 0.305 µM
HCT-15 colon
  GI50: 2.87 µM
  TGI: 9.42 µM
HOP-62 NSCLC
  TGI: 0.668 µM
HOP-92 NSCLC
  GI50: 0.0179 µM
  TGI: 4.94 µM
HS 578T breast
  GI50: < 0.01 µM
  TGI: 0.235 µM
HT29 colon
  GI50: 0.122 µM
  TGI: 1.56 µM
IGROV1 ovarian
  GI50: 0.506 µM
  TGI: 3.77 µM
K-562 leukemia
  GI50: < 0.01 µM
  TGI: < 0.01 µM
KM12 colon
  GI50: 0.0452 µM
  TGI: 1.5 µM
LOX IMVI melanoma
  GI50: 0.271 µM
  TGI: 1.12 µM
M14 melanoma
  TGI: 0.346 µM
MALME-3M melanoma
  GI50: 0.413 µM
  TGI: 3.09 µM
MCF7 breast
  GI50: 0.212 µM
  TGI: > 100 µM
MDA-MB-231 breast
  GI50: 0.259 µM
  TGI: 1.29 µM
MDA-MB-435
  GI50: < 0.0304 µM
MOLT-4 leukemia
  GI50: 0.0174 µM
  TGI: 0.787 µM
NCI-H226 lung
  GI50: 0.182 µM
NCI-H23 lung
  GI50: 0.065 µM
  TGI: 0.469 µM
NCI-H460 lung
  GI50: < 0.01 µM
  TGI: 10.4 µM
NCI-H522 lung
  GI50: 0.457 µM
  TGI: 1.89 µM
NCI/ADR-RES ovarian
  TGI: 0.225 µM
OVCAR-3 ovarian
  GI50: 0.0158 µM
  TGI: 0.064 µM
OVCAR-4 ovarian
  GI50: 0.213 µM
  TGI: 7.49 µM
OVCAR-5 ovarian
  GI50: 0.536 µM
  TGI: 3.69 µM
OVCAR-8 ovarian
  GI50: 1.52 µM
  TGI: > 100 µM
PC-3 prostate
  GI50: < 0.012 µM
  TGI: > 100 µM
RPMI-8226 leukemia
  GI50: < 0.0118 µM
  TGI: 0.0785 µM
RXF 393 renal
  GI50: 2.44 µM
  TGI: 15 µM
SF-295 CNS
  GI50: 0.147 µM
  TGI: 1.41 µM
SF-539 CNS
  GI50: < 0.0146 µM
  TGI: 0.114 µM
SK-MEL-2 melanoma
  GI50: 1.52 µM
  TGI: > 100 µM
SK-MEL-28 melanoma
  GI50: 0.479 µM
  TGI: > 73.6 µM
SK-MEL-5 melanoma
  GI50: < 0.0104 µM
  TGI: 0.157 µM
SK-OV-3 ovarian
  GI50: 0.0734 µM
SN12C renal
  GI50: 0.505 µM
  TGI: 2.37 µM
SNB-19 CNS
  GI50: 0.625 µM
  TGI: > 100 µM
SNB-75 CNS
  GI50: 0.017 µM
  TGI: 0.155 µM
SR leukemia
  GI50: < 0.01 µM
  TGI: < 0.01 µM
SW-620 colon
  GI50: 0.0188 µM
  TGI: 2.49 µM
T-47D breast
  GI50: 0.229 µM
  TGI: > 100 µM
TK-10 renal
  GI50: 0.459 µM
  TGI: 2.12 µM
U251 CNS
  GI50: 0.305 µM
  TGI: 13.6 µM
UACC-257 melanoma
  GI50: 2.38 µM
  TGI: > 68.8 µM
UACC-62 melanoma
  GI50: 0.301 µM
  TGI: 1.28 µM
UO-31 renal
  GI50: 2.44 µM
  TGI: 8.28 µM
